Experimental findings from ChEMBL document CHEMBL4392852, “Synthesis and characterization of hydrogen peroxide activated estrogen receptor beta ligands” (Bioorg Med Chem, 2019) are described below.

Data set [1] in a line: Drug metabolism in pH 7.4 PBS assessed as formation of DPN at 150 uM at 37 degC incubated for 1 hr in presence of 5 fold excess hypochlorite by HPLC analysis relative to untreated control.
Data set [2] can be described thus: Drug metabolism in pH 7.4 PBS assessed as formation of DPN at 150 uM at 37 degC incubated for 1 hr in presence of 5 fold excess TBHP by HPLC analysis.
Data set [3] in a line: Drug metabolism in pH 7.4 PBS assessed as formation of DPN at 150 uM at 37 degC incubated for 1 hr in presence of 5 fold excess hydroxyl radical by HPLC analysis.
A short description of data set [4]: Drug metabolism in pH 7.4 PBS assessed as formation of DPN at 150 uM at 37 degC incubated for 1 hr in presence of 5 fold excess superoxide by HPLC analysis relative to untreated control.
Data set [5] in a line: Drug metabolism in pH 7.4 PBS assessed as formation of DPN at 150 uM at 37 degC incubated for 1 hr in presence of 5 fold excess H2O2 by HPLC analysis.
Data set [6] can be described thus: Drug metabolism in pH 7.4 PBS assessed as second order rate constant for H2O2-mediated formation of DPN at 75 uM at 37 degC incubated for over 4 hrs by UV spectroscopy.
A short description of data set [7]: Retention time of the compound at 150 uM by HPLC analysis. In kind it is physicochemical.
For data set [8], the target named is T1, Estrogen receptor (Homo sapiens) (UniProt P03372).
T1 sequence (whole entry): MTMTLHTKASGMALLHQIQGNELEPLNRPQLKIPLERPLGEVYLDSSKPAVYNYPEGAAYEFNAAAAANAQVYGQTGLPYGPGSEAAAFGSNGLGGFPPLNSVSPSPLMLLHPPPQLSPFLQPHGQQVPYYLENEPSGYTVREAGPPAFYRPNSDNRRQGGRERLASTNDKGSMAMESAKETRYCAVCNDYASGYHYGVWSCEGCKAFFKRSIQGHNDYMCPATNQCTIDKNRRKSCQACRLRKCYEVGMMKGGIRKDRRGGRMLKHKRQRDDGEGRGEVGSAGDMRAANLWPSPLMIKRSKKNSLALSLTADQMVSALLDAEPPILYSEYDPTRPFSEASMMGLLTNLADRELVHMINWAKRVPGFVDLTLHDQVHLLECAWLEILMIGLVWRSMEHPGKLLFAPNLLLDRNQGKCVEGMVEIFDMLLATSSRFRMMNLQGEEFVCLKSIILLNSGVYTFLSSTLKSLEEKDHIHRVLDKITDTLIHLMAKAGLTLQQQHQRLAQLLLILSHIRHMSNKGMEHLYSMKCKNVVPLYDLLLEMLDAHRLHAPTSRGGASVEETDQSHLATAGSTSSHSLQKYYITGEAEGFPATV
The experiment in a line: Ratio of RBA for DPN to RBA for test compound for displacement of fluormone tracer from full length human recombinant ERalpha relative to estradiol.

Data set [9] addresses T2, Estrogen receptor beta (Homo sapiens, UniProt Q92731). Kind of data set: Ratio of RBA for DPN to RBA for test compound for displacement of fluormone tracer from full length human recombinant ERbeta relative to estradiol.
Data set [10] in a line: Drug metabolism in pH 7.4 PBS assessed as formation of DPN at 150 uM at 37 degC incubated for 1 hr in presence of 5 fold excess nitric oxide by HPLC analysis.
A short description of data set [11]: Drug metabolism in pH 7.4 PBS assessed as H2O2-mediated formation of DPN at 75 uM at 37 degC incubated for 10 mins by UV spectroscopy.
The nature of data set [12]: Drug metabolism in pH 7.4 PBS in absence of H2O2 at 75 uM incubated at 37 degC for 4 hrs by UV spectroscopy.
The target of data set [13] is T1, Estrogen receptor (Homo sapiens). Kind of data set: Ratio of RBA for Estrone to RBA for test compound for displacement of fluormone tracer from full length human recombinant ERalpha relative to estradiol.
Data set [14] in a line: Drug metabolism in pH 7.4 PBS assessed as H2O2-mediated conversion to E1 by measuring second order rate constant incubated at 75 uM at 37 degC for 4 hrs by UV spectroscopy.
Data set [15] deals with T2, Estrogen receptor beta. Kind of data set: Ratio of RBA for Estrone to RBA for test compound for displacement of fluormone tracer from full length human recombinant ERbeta relative to estradiol.
A short description of data set [16]: Drug metabolism in pH 7.4 PBS assessed as H2O2-mediated conversion to E2 by measuring retention time of product at 500 uM incubated at 37 degC for 30 mins by GC-MS analysis. Format: physicochemical. Conditions: buffer, pH 7.4, 0.5 h.
The nature of data set [17]: Drug metabolism in pH 7.4 PBS assessed as H2O2-mediated conversion to phenol by measuring second order rate constant for disappearance of starting material at 75 uM incubated at 37 degC for 4 hrs by UV spectroscopy.
Data set [18] can be described thus: Drug metabolism in pH 7.4 PBS assessed as H2O2-mediated conversion to E2 incubated at 500 uM at 37 degC for 30 mins by GC-MS analysis.
For data set [19], the target named is T2, Estrogen receptor beta. The experiment in a line: Ratio of RBA for estradiol RBA for test compound for displacement of fluormone tracer from full length human recombinant ERbeta relative to estradiol.
Data set [20] deals with T1, Estrogen receptor (Homo sapiens). The experiment in a line: Ratio of RBA for estradiol RBA for test compound for displacement of fluormone tracer from full length human recombinant ERalpha relative to estradiol.
For data set [21], the target named is T2, Estrogen receptor beta. The experiment in a line: Activation of human ERbeta assessed as induction of transcriptional activation incubated for 24 hrs by luciferase reporter gene assay. (Reporter assays use an easily measured gene product as a stand-in for the process of interest.)
Data set [22] has as its target T2, Estrogen receptor beta. The experiment in a line: Activation of human ERbeta assessed as induction of transcriptional activation incubated for 24 hrs in presence of 50 uM H2O2 by luciferase reporter gene assay.
Data set [23] concerns the target T2, Estrogen receptor beta. Kind of data set: Activation of human ERbeta assessed as induction of transcriptional activation incubated for 24 hrs in presence of 100 uM H2O2 by luciferase reporter gene assay.

T2 sequence (Q92731 whole entry): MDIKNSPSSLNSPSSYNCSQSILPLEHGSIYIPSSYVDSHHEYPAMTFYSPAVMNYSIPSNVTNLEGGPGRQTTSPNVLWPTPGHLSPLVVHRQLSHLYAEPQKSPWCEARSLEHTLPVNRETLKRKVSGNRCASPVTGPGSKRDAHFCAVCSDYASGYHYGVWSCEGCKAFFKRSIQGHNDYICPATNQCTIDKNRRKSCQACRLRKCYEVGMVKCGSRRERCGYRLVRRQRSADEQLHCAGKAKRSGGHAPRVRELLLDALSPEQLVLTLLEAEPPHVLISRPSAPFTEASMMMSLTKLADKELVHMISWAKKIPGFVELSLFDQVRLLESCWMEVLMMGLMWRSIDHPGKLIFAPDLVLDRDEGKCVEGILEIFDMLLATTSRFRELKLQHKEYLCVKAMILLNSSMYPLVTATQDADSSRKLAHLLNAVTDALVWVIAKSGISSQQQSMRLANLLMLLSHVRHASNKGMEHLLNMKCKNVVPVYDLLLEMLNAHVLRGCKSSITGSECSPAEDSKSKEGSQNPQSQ

Turning to `CC1(C)OB(c2ccc(CC(C#N)c3ccc(O)cc3)cc2)OC1(C)C` (centres undefined), the Drug metabolism in data set [1] is 50 to 80%; in data set [2], “Metabolite not detected”; in data set [3], “Metabolite not detected”; in data set [4], 22%; in [5] it was “Metabolite detected”; in data set [10], “Metabolite not detected”. The Drug metabolism result is listed as “Metabolite detected” in data set [11] and “Metabolite not detected” in data set [12]. The K in [6] is 6.46 M⁻¹ s⁻¹. The molecule further gave a Retention_time in [7] of 22 min. In addition, the figures for the Ratio (in data set [8]; on Estrogen receptor beta [9]) were 4.5 and 5, respectively.

`N#CC(Cc1ccc(O)cc1)c1ccc(O)cc1` (centres undefined) [DIARYLPROPIONITRILE] registered a Retention_time in [7] of 19 min.

In the case of `CC1(C)OB(c2ccc3c(c2)CC[C@@H]2[C@@H]3CC[C@]3(C)C(=O)CC[C@@H]23)OC1(C)C`, the Ratio (in [13]; at Estrogen receptor beta [15]) was 6 each time. The K in [14] came out at 4.81 M⁻¹ s⁻¹. Further, in data set [12], the Drug metabolism result is on record as “Metabolite not detected”.

On to `CC1(C)OB(c2ccc3c(c2)CC[C@@H]2[C@@H]3CC[C@]3(C)[C@@H](O)CC[C@@H]23)OC1(C)C`, for which the Retention_time in data set [16] amounted to 12.5 min. Further, in data set [17], the K worked out at 5.57 M⁻¹ s⁻¹. Also, the Drug metabolism result in data set [18] was “Metabolite detected”; in data set [12], “Metabolite not detected”. The Ratio (at Estrogen receptor beta [19]; in [20]) was 3 throughout.

One may read the EC50 as the concentration that produces a half-maximal response. As for `CC1(C)OB(c2ccc(CC(C#N)c3ccc(B4OC(C)(C)C(C)(C)O4)cc3)cc2)OC1(C)C` (centres undefined), the EC50 at Estrogen receptor beta [21] amounted to 470 nM; on Estrogen receptor beta [22], 6.1 nM; on Estrogen receptor beta [23], 1.2 nM. Besides, the Drug metabolism in [1] is 50 to 80%; in data set [2] it was “Metabolite not detected”; in [3] it was “Metabolite not detected”; in [4] it was 22%; in data set [5], “Metabolite detected”; in data set [10], “Metabolite not detected”. Further, the Drug metabolism result in [11] is on record as “Metabolite detected”; in data set [12] it was “Metabolite not detected”. For the same molecule, in [6], the K was found to be 5.14 M⁻¹ s⁻¹. The same molecule showed a Retention_time in [7] of 28 min. Further, on Estrogen receptor beta [9], the Ratio was 20.

`CC1(C)OB(c2ccc(C(C#N)Cc3ccc(O)cc3)cc2)OC1(C)C` (centres undefined): the Drug metabolism in data set [1] is 50 to 80%; in data set [2] it was “Metabolite not detected”; in data set [3] it was “Metabolite not detected”; in data set [4] it was 22%; in [5], “Metabolite detected”; in data set [10] it was “Metabolite not detected”. The Drug metabolism result in data set [11] is “Metabolite detected”; in data set [12], “Metabolite not detected”. Besides, the K in data set [6] turned out to be 5.92 M⁻¹ s⁻¹. In addition, the Retention_time in [7] was 23 min. Further, the Ratio was 6 in data set [8] and 5 on Estrogen receptor beta [9].
